Laboratory results taken from US20230219890A1, “BICYCLIC COMPOUNDS AND USE THEREOF” (Betta Pharmaceuticals Co.,Ltd, priority 2020, published 2023).

How the values were obtained:
VEGFA (786-O cells) = test: VEGFA ELISA Assay (IC50); assay type: cell-based; conditions: VEGFA in culture supernatant by ELISA
Procedure: 786-O cells in exponential growth phase were seeded in 96-well plate, the cell concentration was 65,000 cells per milliliter of culture medium, 180 ul per well. Compounds were serial diluted to the indicated concentration, and 20 ul compound solutions of different concentrations were added to the corresponding cell wells. The final compound concentrations were as follows (nM): 1.5, 4.6, 13.7, 41.2, 123.5, 370.4, 1111.1, 3333.3, 10000. After 24 hours of incubation, the cell culture supernatant was taken, and the VEGFA concentration was determined using an ELISA kit (purchased from abcam). Finally, the reaction was terminated, and the light absorbance value of each well was measured using a microplate reader at a wavelength of […], and IC50 was calculated by GraphPad Prism. Cell Titer-Glo reagent was used to measure cell viability.

[1] = test system: HIF2α reporter cells (786-O-HIF2α-Luc cells); test: Luciferase Assay (HIF2α reporter cells); assay type: cell-based; conditions: 18-20 h, Steady-Glo luminescence
Procedure: Luciferase LUC gene was transfected into 786-O cells (purchased from ATCC) using Lipofectamine 3000 Transfection Reagent (purchased from Invitrogen) to construct HIF2α reporter cells (786-O-HIF2α-Luc cells). Experiments were performed when 786-O-HIF2α-Luc cells were in logarithmic growth phase, culture medium (RPMI MEDIUM 1640, purchased from Invitrogen) was abandoned, the cells were rinsed with PBS three times; trypsin (TrypLE, purchased from invitrogen) was added to digest cells, the digestion was terminated by washing the cells with culture medium, 10% fetal bovine serum, 1% penicillin and streptomycin. The cells were collected by centrifugation, rinsed twice with PBS to remove the phenol red in the medium, and then resuspended the cells to an appropriate concentration, and detected the cell density and viability, and made sure the cell viability is above 90% before it can be used for experiments.
The gradient concentration compound was transferred into 384-well plate, 25 nl/well using Echo 550 (non-contact sonic pipetting system, purchased from Labcyte); the cells were seeded in 384-well plate, 4500 cells/well, with 25 μl of culture medium, to make the final concentrations as follows: 10000, 3333, 1111, 370, 123, 41.1, 13.7, 4.6, 1.5, 0.5 nM. Cells were incubated at 37° C., 5% CO2 for 18-20 h; Steady-Glo™ Luciferase Assay System (purchased from Promega) was added to 384 well-plate, 25 μl/well; the luminescence value was detected with Envision. The % inhibition rate was calculated according to the RLU (Record Luminescence) signal value of each well, and then the IC50 of the corresponding compound was calculated by Graphpad 8.0.

[2] = Homo sapiens, 786-0, 24 h, 24 hours incubation, numeric values
[3] = Homo sapiens, 786-0, 24 h, 24 hours incubation, class symbols
[4] = 24 hours incubation, numeric values

## N#Cc1ccc(-n2cc(C(F)(F)F)c3c2CCC(F)(F)C3O)cc1Cl (stereo not shown) [Example 124, 2-chloro-4-(5,5-difluoro-4-hydroxy-3-(trifluoromethyl)-4,5,6,7-tetrahydro-1H-indol-1-yl)benzonitrile]
VEGFA (786-O cells); Homo sapiens, 786-0, 24 hours incubation, numeric values
  IC50: 0.0085 µM
[1]; class symbols
  IC50: ≤ 0.5 µM

## OC1c2c(C(F)(F)F)cn(-c3cccc(Cl)c3)c2CCC1(F)F (stereo not drawn) [Example 15, l-(3-chlorophenyl)-5,5-difluoro-3-(trifluoromethyl)-4,5,6,7-tetrahydro-1H-indol-4-ol]
VEGFA (786-O cells); [2]
  IC50: 0.0188 µM
[1]; class symbols
  IC50: ≤ 0.5 µM

## N#Cc1cc(-n2cc(C(F)(F)F)c3c2CCC(F)[C@H]3O)ccc1F (stereo partly drawn) [Example 131, 2-fluoro-5-((4S)-5-fluoro-4-hydroxy-3-(trifluoromethyl)-4,5,6,7-tetrahydro-1H-indol-1-yl)benzonitrile]
VEGFA (786-O cells); [3]
  IC50: ≤ 0.5 µM
[1]; class symbols
  IC50: ≤ 0.5 µM

## OC1c2c(C(F)(F)F)cn(-c3cc(Cl)cc(Cl)c3)c2CCC1(F)F (stereo not shown) [Example 20, 1-(3,5-dichlorophenyl)-5,5-difluoro-3-(trifluoromethyl)-4,5,6,7-tetrahydro-1H-indol-4-ol]
VEGFA (786-O cells); [3]
  IC50: ≤ 0.5 µM
[1]; class symbols
  IC50: ≤ 0.5 µM

## O[C@H]1c2c(C(F)(F)F)cn(-c3cc(F)cc(Cl)c3)c2CCC1(F)F [Example 116, (S)-1-(3-chloro-5-fluorophenyl)-5,5-difluoro-3-(trifluoromethyl)-4,5,6,7-tetrahydro-1H-indol-4-ol]
VEGFA (786-O cells); [2]
  IC50: 0.0277 µM
[1]; numeric values
  IC50: 0.0532 µM

## N#Cc1cc(-n2cc(C(F)(F)F)c3c2CCC(F)(F)[C@H]3O)ccc1F [Example 95]
VEGFA (786-O cells); [4]
  IC50: 0.0145 µM
[1]; numeric values
  IC50: 0.0376 µM

## (4S,5S)-1-(3-(difluoromethyl)-4-fluorophenyl)-5-fluoro-3-(trifluoromethyl)-4,5,6,7-tetrahydro-1H-indol-4-ol and (4R,5R)-1-(3-(difluoromethyl)-4-fluorophenyl)-5-fluoro-3-(trifluoromethyl)-4,5,6,7-tetrahydro-1H-indol-4-ol [Example 103]
VEGFA (786-O cells); [4]
  IC50: 0.0441 µM
[1]; class symbols
  IC50: ≤ 0.5 µM

## OC1c2c(C(F)(F)F)cn(-c3cc(F)cc(Cl)c3)c2CCC1(F)F (stereo not shown) [Example 7, 1-(3-chloro-5-fluorophenyl)-5,5-difluoro-3-(trifluoromethyl)-4,5,6,7-tetrahydro-1H-indol-4-ol]
VEGFA (786-O cells); [2]
  IC50: 0.0307 µM
[1]; numeric values
  IC50: 0.0577 µM

## N#Cc1cc(-c2cc(C(F)(F)F)c3n2CCC(F)C3O)ccc1F (stereo not shown) [Example 75, 2-fluoro-5-(7-fluoro-8-hydroxy-1-(trifluoromethyl)-5,6,7,8-tetrahydroindolizin-3-yl)benzonitrile]
VEGFA (786-O cells); [3]
  IC50: ≤ 0.5 µM
[1]; class symbols
  IC50: ≤ 0.5 µM

## OC1c2c(C(F)(F)F)cn(-c3ccc(F)c(C(F)(F)F)c3)c2CCC1(F)F (stereo not shown) [Example 156, 5,5-difluoro-1-(4-fluoro-3-(trifluoromethyl)phenyl)-3-(trifluoromethy)-4,5,6,7-tetrahydro-1H-indol-4-ol]
VEGFA (786-O cells); [2]
  IC50: 0.0156 µM
[1]; numeric values
  IC50: 0.0705 µM

## N#Cc1ccc(-n2cc(C(F)(F)F)c3c2CCC(F)(F)C3O)cc1C#N (stereo not shown) [Example 125, 4-(5,5-difluoro-4-hydroxy-3-(trifluoromethyl)-4,5,6,7-tetrahydro-1H-indol-1-yl)phthalonitrile]
VEGFA (786-O cells); [2]
  IC50: 0.034 µM
[1]; class symbols
  IC50: ≤ 0.5 µM

## N#Cc1cccc(-n2cc(C(F)(F)F)c3c2CCC(F)(F)C3O)c1 (stereo not shown) [Example 19, 3-(5,5-difluoro-4-hydroxy-3-(trifluoromethyl)-4,5,6,7-tetrahydro-1H-indol-1-yl)benzonitrile]
VEGFA (786-O cells); [3]
  IC50: ≤ 0.5 µM
[1]; class symbols
  IC50: ≤ 0.5 µM

## [2H][C@]1(O)c2c(C(F)(F)F)cn(-c3ccc(F)c(C#N)c3)c2CCC1(F)F [Example 200, (S)-5-(5,5-difluoro-4-hydroxyl-3-(trifluoromethyl)-4,5,6,7-tetrahydro-1H-indol-1-yl-4-d)-2-fluorobenzonitrile]
VEGFA (786-O cells); [2]
  IC50: 0.0056 µM
[1]; numeric values
  IC50: 0.0335 µM

## O[C@H]1c2c(C(F)(F)F)cn(-c3ccc(F)c(C(F)F)c3)c2CC[C@H]1F (single isomer, unassigned) [Example 104]
VEGFA (786-O cells); [2]
  IC50: 0.0062 µM
[1]; numeric values
  IC50: 0.022 µM

## N#Cc1cc(-c2cc(C(F)(F)F)c3n2CCC(F)(F)[C@H]3O)ccc1F [Example 70, (S)-5-(7,7-difluoro-8-hydroxyl-1-(trifluoromethyl)-5,6,7,8-tetrahydroindolizin-3-yl)-2-fluorobenzonitrile]
VEGFA (786-O cells); [2]
  IC50: 0.0454 µM
[1]; numeric values
  IC50: 0.0842 µM

## N#Cc1cc(-n2cc(C(F)(F)F)c3c2CCC(F)(F)[C@H]3F)ccc1F (single isomer, unassigned) [Example 196]
VEGFA (786-O cells); [3]
  IC50: ≤ 0.5 µM
[1]; class symbols
  IC50: ≤ 0.5 µM

## OC1c2c(C(F)(F)F)c(F)n(-c3cc(F)cc(Cl)c3)c2CCC1(F)F (stereo not shown) [Example 106, 1-(3-chloro-5-fluorophenyl)-2,5,5-trifluoro-3-(trifluoromethyl)-4,5,6,7-tetrahydro-1H-indol-4-ol]
VEGFA (786-O cells); [3]
  IC50: ≤ 0.5 µM
[1]; class symbols
  IC50: ≤ 0.5 µM

## O[C@H]1c2c(-c3cccs3)cn(-c3cc(F)cc(Cl)c3)c2CCC1(F)F [Example 48, (S)-1-(3-chloro-5-fluorophenyl)-5,5-difluoro-3-(thiophen-2-yl)-4,5,6,7-tetrahydro-1H-indol-4-ol]
VEGFA (786-O cells); [2]
  IC50: 0.0456 µM
[1]; class symbols
  IC50: ≤ 0.5 µM

## OC1CCCc2c1c(C(F)(F)F)cn2-c1cc(F)cc(F)c1 (stereo not shown) [Example 37, 1-(3,5-difluorophenyl)-3-(trifluoromethyl)-4,5,6,7-tetrahydro-1H-indol-4-ol]
VEGFA (786-O cells); [3]
  IC50: ≤ 0.5 µM
[1]; class symbols
  IC50: ≤ 0.5 µM

## OC1c2c(C(F)(F)F)cn(-c3ccc(F)c(C(F)F)c3)c2CCC1(F)F (stereo not shown) [Example 168, 1-(3-(difluoromethyl)-4-fluorophenyl)-5,5-difluoro-3-(trifluoromethyl)-4,5,6,7-tetrahydro-1H-indol-4-ol]
VEGFA (786-O cells); [2]
  IC50: 0.0084 µM
[1]; numeric values
  IC50: 0.0305 µM

## N#Cc1cc(F)cc(-n2cc(C(F)(F)F)c3c2CCC(F)(F)C3O)c1 (stereo not shown) [Example 12, 3-(5,5-difluoro-4-hydroxy-3-(trifluoromethyl)-4,5,6,7-tetrahydro-1H-indol-1-yl)-5-fluorobenzonitrile]
VEGFA (786-O cells); [2]
  IC50: 0.0675 µM
[1]; class symbols
  IC50: ≤ 0.5 µM

## N#Cc1ccc(-n2cc(C(F)(F)F)c3c2CCC(F)(F)[C@H]3O)cc1C#N [Example 167, (S)-4-(5,5-difluoro-4-hydroxy-3-(trifluoromethyl)-4,5,6,7-tetrahydro-1H-indol-1-yl)phthalonitrile]
VEGFA (786-O cells); [3]
  IC50: ≤ 0.5 µM
[1]; numeric values
  IC50: 0.0699 µM

## Fc1cc(Cl)cc(-n2cc(C(F)(F)F)c3c2CCc2cn[nH]c2-3)c1 [Example 202, 6-(3-chloro-5-fluorophenyl)-8-(trifluoromethyl)-1,4,5,6-tetrahydropyrrolo-[2,3-g]indazole]
VEGFA (786-O cells); [3]
  IC50: > 1.5 µM

## N#Cc1cc(-n2cc(C(F)(F)F)c3c2CCC(F)(F)[C@@H]3F)ccc1F (single isomer, unassigned) [Example 197]
VEGFA (786-O cells); [3]
  IC50: ≤ 0.5 µM

## O=C1c2c(C(F)(F)F)cn(-c3cc(F)cc(Cl)c3)c2CCC1(F)F [Example 6, 1-(3-chloro-5-fluorophenyl)-5,5-difluoro-3-(trifluoromethyl)-1,5,6,7-tetrahydro-4H-indol-4-one]
VEGFA (786-O cells); [3]
  IC50: 0.5 to 1.5 µM

## CS(=O)(=O)c1cn(-c2cc(F)cc(Cl)c2)c2c1C(O)C(F)(F)CC2 (stereo not shown) [Example 109, 1-(3-chloro-5-fluorophenyl)-5,5-difluoro-3-(methylsulfonyl)-4,5,6,7-tetrahydro-1H-indol-4-ol]
VEGFA (786-O cells); [3]
  IC50: ≤ 0.5 µM

## N#CC1c2c(C(F)(F)F)cn(-c3ccc(F)cc3)c2CCC1(F)F (stereo not shown) [Example 178, 5,5-difluoro-1-(4-fluorophenyl)-3-(trifluoromethyl)-4,5,6,7-tetrahydro-1H-indole-4-carbonitrile]
VEGFA (786-O cells); [3]
  IC50: ≤ 0.5 µM
